Experimental data published in patent publication US20210147343A1 (priority 2018, published 2021).
Structures can show the parent of a compound that is named as a salt.

Tests used:
mu opioid receptor (MOR) [1] = biological target: T1, mu opioid receptor (MOR) (Homo sapiens, UniProt P35372); experiment: MOR GTPγS agonist assay; format: biochemical; parameters: host or cells: CHO-K1; conditions: membranes of CHO cells over-expressing MOR; SPA beads; read-out: MOR GTPγS EC50
From the text: Membranes obtained from the stable cell lines over-expressing MOR were subjected to GTPγS assay using SPA beads (Perkin Elmer, Cat #RPNQ0001).

mu opioid receptor (MOR) [2] = biological target: T1, mu opioid receptor (MOR); experiment: MOR cAMP agonist assay

T1 sequence (P35372 whole entry): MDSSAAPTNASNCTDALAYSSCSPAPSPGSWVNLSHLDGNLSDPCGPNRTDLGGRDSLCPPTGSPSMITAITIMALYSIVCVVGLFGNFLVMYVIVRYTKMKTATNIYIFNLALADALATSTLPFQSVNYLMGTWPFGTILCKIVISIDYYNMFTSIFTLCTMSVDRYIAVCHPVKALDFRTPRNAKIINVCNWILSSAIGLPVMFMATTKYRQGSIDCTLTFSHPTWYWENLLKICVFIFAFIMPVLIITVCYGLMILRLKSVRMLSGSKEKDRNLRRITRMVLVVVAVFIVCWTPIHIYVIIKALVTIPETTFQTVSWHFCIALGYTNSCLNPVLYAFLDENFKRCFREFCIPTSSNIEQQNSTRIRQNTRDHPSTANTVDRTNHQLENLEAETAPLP

SMILES	EC50 (mu opioid receptor (MOR) [1]) [nM]	EC50 (mu opioid receptor (MOR) [2]) [nM]
Cc1ccc(C(=O)NC[C@H](Cc2ccc3n[nH]cc3c2)N(C)C)c(C)c1 [Compound C-51]	100 to 1000	
Cc1cc(O)cc(C)c1C[C@@H](CNC(=O)c1cccc(Cl)c1)N(C)C [Compound C-25]	< 100	
CN(C)[C@H](CNC(=O)c1ccc(Cl)cc1Cl)Cc1ccc2n[nH]cc2c1 [Compound C-50, (S)-2,4-dichloro-N-(2-(dimethylamino)-3-(1H-indazol-5-yl)propyl) benzamide]	100 to 1000	
CNC(=O)c1ccc(C[C@@H](CNC(=O)[C@H]2C[C@]2(C)c2ccccc2)N(C)C)cc1F [Compound B-22, 4-((S)-2-(dimethylamino)-3-((1S,2S)-2-methyl-2-phenylcyclopropane-1-carboxamido)propyl)-2-fluoro-N-methylbenzamide]		< 100
CN(C)[C@H](CNC(=O)c1ccc(Cl)c(F)c1)Cc1ccc(O)cc1Cl [Compound C-19]	100 to 1000	
Cc1cc(O)cc(C)c1C[C@@H](CNC(=O)c1cc(F)c(Cl)c(F)c1)N(C)C [Compound C-29]	< 100	
CN(C)[C@H](CNC(=O)[C@@H]1C[C@@]1(C)c1ccccc1)Cc1ccc2[nH]c(=O)oc2c1 [Compound B-53, (1R,2R)—N—((S)-2-(dimethylamino)-3-(2-oxo-2,3-dihydrobenzo[d]oxazol-6-yl)propyl)-2-methyl-2-phenylcyclopropane-1-carboxamide]		< 100
Cc1cnc(C(=O)NC[C@H](Cc2ccc3n[nH]cc3c2)N(C)C)c(C)c1 [Compound C-52]	> 1000	
CN1Cc2cc(O)ccc2C[C@H]1CNC(=O)N1CCc2ccccc2C1 [Compound C-53, (S)—N-((7-hydroxy-2-methyl-1,2,3,4-tetrahydroisoquinolin-3-yl)methyl)-3,4-dihydroisoquinoline-2(1H)-carboxamide]	< 100	
CN(C)[C@H](CNC(=O)c1ccc(C2CC2)cc1)Cc1ccc(O)cc1Cl [Compound C-20]	> 1000	
CNC(=O)c1cc(C)c(C[C@@H](CNC(=O)c2cccc(Cl)c2)N(C)C)c(C)c1 [Compound C-44]	< 100	
CN(C)[C@H](CNC(=O)[C@@H]1C[C@@]1(C)c1ccccc1)Cc1ccc(O)c(Cl)c1 [Compound B-59, (1R,2R)—N—((S)-3-(3-chloro-4-hydroxyphenyl)-2-(dimethylamino)propyl)-2-methyl-2-phenylcyclopropane-1-carboxamide]		< 100
CN(CC1CC1)[C@H](CNC(=O)c1ccc(Cl)c(Cl)c1)Cc1ccc2[nH]ncc2c1 [Compound C-62, (S)-3,4-dichloro-N-(2-((cyclopropylmethyl)(methyl)amino)-3-(1H-indazol-5-yl)propyl)benzamide]	100 to 1000	
CN(C)[C@H](CNC(=O)[C@@H]1C[C@@]1(C)c1ccccc1)Cc1cc2cn[nH]c2cc1Cl [Compound B-52, (1R,2R)—N—((S)-3-(6-chloro-2H-indazol-5-yl)-2-(dimethylamino)propyl)-2-methyl-2-phenylcyclopropane-1-carboxamide]		< 100
CNC(=O)c1ccc(C[C@@H](CNC(=O)c2cccc(Cl)c2)N(C)C)c(Cl)c1 [Compound C-41]	< 100	
CNC(=O)c1cc(C)c(C[C@@H](CNC(=O)c2ccccn2)N(C)C)c(C)c1 [Compound C-46]	> 1000	
CNC(=O)c1cc(C)c(C[C@@H](CNC(=O)c2cc(Cl)cc(Cl)c2)N(C)C)c(C)c1 [Compound C-12]	< 100	
Cc1cc(O)cc(C)c1C[C@@H](CNC(=O)N1CCc2ccccc2C1)N(C)C [Compound C-55, (S)—N-(2-(dimethylamino)-3-(4-hydroxy-2,6-dimethyphenyl)propyl)-3,4-dihydroisoquinoline-2(1H)-carboxamide]	> 1000	
CCNC(=O)c1ccc(C[C@@H](CNC(=O)[C@@H]2C[C@]2(C)c2ccccc2)N(C)C)cc1F [Compound B-34, 4-((S)-2-(dimethylamino)-3-((1R,2S)-2-methyl-2-phenylcyclopropane-1-carboxamido)propyl)-N-ethyl-2-fluorobenzamide]		< 100
CNC(=O)c1ccc(C[C@@H](CNC(=O)N2CCc3ccccc3C2)N(C)C)cc1F [Compound C-58, (S)—N-(2-(dimethylamino)-3-(3-fluoro-4-(methylcarbamoyl)phenyl)propyl)-3,4-dihydroisoquinoline-2(1H)-carboxamide]	< 100	
CNC(=O)c1cc(C)c(C[C@@H](CNC(=O)c2ccc(Cl)c(Cl)c2)N(C)C)c(C)c1 [Compound C-42, (S)-4-(3-(3,4-Dichlorobenzamido)-2-(dimethylamino)propyl)-N,3,5-trimethylbenzamide Hydrochloride]	< 100	
CNC(=O)c1cc(C)c(C[C@@H](CNC(=O)c2ccc(F)c(Cl)c2)N(C)C)c(C)c1 [Compound C-14]	< 100	
CN(C)[C@H](CNC(=O)[C@@H]1C[C@@H]1c1ccccc1)Cc1ccc(O)cc1 [Compound B-25, (1R,2S)—N—((S)-2-(dimethylamino)-3-(4-hydroxyphenyl)propyl)-2-phenylcyclopropane-1-carboxamide]		100 to 1000
CNC(=O)c1cc(C)c(C[C@@H](CNC(=O)c2ccc(Cl)cc2C)N(C)C)c(C)c1 [Compound C-15]	< 100	

SMILES	EC50 (mu opioid receptor (MOR) [1]) [nM]	EC50 (mu opioid receptor (MOR) [2]) [nM]
CNC(=O)c1cc(F)c(C[C@@H](CNC(=O)[C@@H]2C[C@]2(C)c2ccccc2)N(C)C)cc1F [Compound B-28, 4-((S)-2-(dimethylamino)-3-((1R,2S)-2-methyl-2-phenylcyclopropane-1-carboxamido)propyl)-2,5-difluoro-N-methylbenzamide]		< 100
CN(CC(F)(F)F)[C@H](CNC(=O)c1ccc(Cl)c(Cl)c1)Cc1ccc2[nH]ncc2c1 [Compound C-63]	> 1000	
CN(CC1CC1)[C@H](CNC(=O)[C@@H]1C[C@]1(C)c1ccccc1)Cc1ccc2[nH]c(=O)oc2c1 [Compound B-32, (1R,2S)—N—((S)-2-((cyclopropylmethyl)(methyl)amino)-3-(2-oxo-2,3-dihydrobenzo[d]oxazol-6-yl)propyl)-2-methyl-2-phenylcyclopropane-1-carboxamide]		100 to 1000
CNC(=O)c1cc(C)c(C[C@@H](CNC(=O)c2ncc(Cl)cc2Cl)N(C)C)c(C)c1 [Compound C-48]	100 to 1000	
CNC(=O)c1cc(C)c(C[C@@H](CNC(=O)c2ccc(Cl)cc2Cl)N(C)C)c(C)c1 [Compound C-16]	< 100	
CN(C)[C@H](CNC(=O)c1cccc(Cl)c1)Cc1ccc(O)cc1 [Compound C-23, (S)-3-chloro-N-(2-(dimethylamino)-3-(4-hydroxyphenyl)propyl)benzamide]	100 to 1000	
CN(C)[C@](C)(CNC(=O)c1ccc(Cl)c(Cl)c1)Cc1ccc(O)cc1 [Compound C-3, (S)-3,4-dichloro-N-(2-(dimethylamino)-3-(4-hydroxyphenyl)-2-methylpropyl)benzamide]	> 1000	
CN1Cc2cc(O)ccc2C[C@H]1CNC(=O)[C@@H]1C[C@]1(C)c1ccccc1 [Compound B-50, (1R,2S)—N—(((S)-7-hydroxy-2-methyl-1,2,3,4-tetrahydroisoquinolin-3-yl)methyl)-2-methyl-2-phenylcyclopropane-1-carboxamide]		< 100
CNC(=O)c1cc(C)c(C[C@@H](CNC(=O)c2ccc(C)cc2C)N(C)C)c(C)c1 [Compound C-18]	< 100	
CNC(=O)c1cc(C)c(C[C@@H](CNC(=O)c2ccccc2Cl)N(C)C)c(C)c1 [Compound C-10]	100 to 1000	
CNC(=O)c1cc(C)c(C[C@@H](CNC(=O)c2cnccn2)N(C)C)c(C)c1 [Compound C-47, (S)—N-(3-(2,6-dimethyl-4-(methylcarbamoyl)phenyl)-2-(dimethylamino)propyl)pyrazine-2-carboxamide]	> 1000	
CNC(=O)c1cc(C)c(C[C@@H](CNC(=O)c2ncc(C)cc2C)N(C)C)c(C)c1 [Compound C-49]	100 to 1000	
CNC(=O)c1cc(C)c(C[C@@H](CNC(=O)c2ccc(Cl)cc2)N(C)C)c(C)c1 [Compound C-11]	< 100	
CN1Cc2cc(O)ccc2C[C@H]1CNC(=O)c1cccc(Cl)c1 [Compound C-36, (S)-3-chloro-N-((7-hydroxy-2-methyl-1,2,3,4-tetrahydroisoquinolin-3-yl)methyl)benzamide]	< 100	
CN(C)[C@H](CNC(=O)c1ccc(Cl)cc1)Cc1ccc(O)cc1Cl [Compound C-21]	> 1000	
CNC(=O)c1cc(C)c(CC(CNC(=O)c2ccccc2C2CC2)N(C)C)c(C)c1 (centres unmarked) [Compound C-43]	< 100	
COc1ccc(C(=O)NC[C@H](Cc2c(C)cc(O)cc2C)N(C)C)cc1Cl [Compound C-5, (S)-3-chloro-N-(2-(dimethylamino)-3-(4-hydroxy-2,6-dimethylphenyl)propyl)-4-methoxybenzamide]	< 100	
Cc1cc(O)cc(C)c1C[C@@H](CNC(=O)c1ccc(Cl)c(F)c1)N(C)C [Compound C-6, (S)-4-chloro-N-(2-(dimethylamino)-3-(4-hydroxy-2,6-dimethylphenyl)propyl)-3-fluorobenzamide]	< 100	
CN(C)[C@H](CNC(=O)c1ccc(Cl)c(Cl)c1)Cc1ccc2n[nH]cc2c1 [Compound C-4, (S)-3,4-dichloro-N-(2-(dimethylamino)-3-(1H-indazol-5-yl)propyl)benzamide]	< 100	
CNC(=O)c1ccc(C[C@@H](CNC(=O)c2ccc(Cl)c(Cl)c2)N(C)CC2CC2)cc1F [Compound C-38]	< 100	
CNC(=O)c1cc(C)c(C[C@@H](CNC(=O)c2ccc(OC)cc2)N(C)C)c(C)c1 [Compound C-17]	< 100	
CN(C)[C@H](CNC(=O)c1ccc(Cl)c(F)c1)Cc1ccc2n[nH]cc2c1 [Compound C-65, (S)-4-chloro-N-(2-(dimethylamino)-3-(2H-indazol-5-yl)propyl)-3-fluorobenzamide]	< 100	
CNC(=O)c1cc(C)c(C[C@@H](CNC(=O)c2ccc(Cl)c(F)c2)N(C)C)c(C)c1 [Compound C-13]	< 100	
